Results reported in ChEMBL document CHEMBL1156232, “Non-classical antifolates. Part 2: synthesis, biological evaluation, and molecular modeling study of some new 2,6-substituted-quinazolin-4-ones” (Bioorg Med Chem, 2010).
Values after ≈ are worked out from the molar mass of the structure shown. Active and inactive are the calls of the source. The rule behind the calls is not given here.

Columns and labels:
Staphylococcus aureus = experiment: Antibacterial activity against Staphylococcus aureus at 200 ug/disk after 24 hrs by disk diffusion method; assay type: functional
Bacillus subtilis = experiment: Antibacterial activity against Bacillus subtilis at 200 ug/disk after 24 hrs by disk diffusion method; assay type: functional
Micrococcus luteus = experiment: Antibacterial activity against Micrococcus luteus at 200 ug/disk after 24 hrs by disk diffusion method; assay type: functional
Escherichia coli [1] = experiment: Antibacterial activity against Escherichia coli at 200 ug/disk after 24 hrs by disk diffusion method; assay type: functional; conditions: for zone of inhibition at 200 µg/disc: read-out: DIZ
Pseudomonas aeruginosa = experiment: Antibacterial activity against Pseudomonas aeruginosa at 200 ug/disk after 24 hrs by disk diffusion method; assay type: functional
Candida albicans [2] = experiment: Antifungal activity against Candida albicans at 200 ug/disk after 48 hrs by disk diffusion method; assay type: functional, organism-based
Candida albicans [3] = experiment: Antifungal activity against Candida albicans after 48 hrs by microdilution susceptibility method; assay type: functional, organism-based
Dihydrofolate reductase [4] = target: T1, Dihydrofolate reductase (Bos taurus, UniProt P00376)
T1 sequence (P00376 whole entry): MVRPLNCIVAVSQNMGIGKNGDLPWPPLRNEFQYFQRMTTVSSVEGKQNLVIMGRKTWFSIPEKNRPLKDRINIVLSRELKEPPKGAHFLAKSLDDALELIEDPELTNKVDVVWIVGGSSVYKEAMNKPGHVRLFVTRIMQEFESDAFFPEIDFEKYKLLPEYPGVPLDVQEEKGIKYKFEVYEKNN
Description: Inhibition of bovine DHFR after 2 mins

Dihydrofolate reductase [5] = target: T2, Dihydrofolate reductase (Homo sapiens, UniProt P00374)
T2 sequence (P00374 whole entry): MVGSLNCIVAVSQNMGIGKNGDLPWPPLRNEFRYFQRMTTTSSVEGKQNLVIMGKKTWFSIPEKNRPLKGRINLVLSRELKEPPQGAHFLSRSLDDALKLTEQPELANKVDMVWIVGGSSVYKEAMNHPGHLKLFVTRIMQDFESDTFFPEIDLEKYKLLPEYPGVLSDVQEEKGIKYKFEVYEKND
Description: Inhibition of human DHFR after 2 mins

Escherichia coli [6] = experiment: Antibacterial activity against Escherichia coli after 24 hrs by microdilution susceptibility method; assay type: functional

SMILES	diameter of the inhibition zone (DIZ) (Staphylococcus aureus)	diameter of the inhibition zone (DIZ) (Bacillus subtilis)	diameter of the inhibition zone (DIZ) (Micrococcus luteus)	diameter of the inhibition zone (DIZ) (Escherichia coli [1])	diameter of the inhibition zone (DIZ) (Pseudomonas aeruginosa)	Activity (Candida albicans [2])	Activity (Candida albicans [3])	IC50 (Dihydrofolate reductase [4]) [µM]	zone of inhibition at 200 µg/disc (Escherichia coli [1]) [mm]	IC50 (Dihydrofolate reductase [5]) [µM]	MIC (Escherichia coli [6]) [µg/mL]	zone of inhibition at 200 µg/disc (Pseudomonas aeruginosa; read-out: DIZ) [mm]
CSc1nc2ccc(C)cc2c(=O)n1Cc1ccccc1	inactive	inactive	inactive	inactive	inactive	inactive	inactive	20	–	–	–	–
CSc1nc2ccc(NC/C=C/c3ccccc3)cc2c(=O)n1Cc1ccccc1	inactive	inactive	inactive	–	inactive	inactive	inactive	0.5	15	2	–	–
Cc1ccc2nc(SCc3ccccc3)n(Cc3ccccc3)c(=O)c2c1	inactive	inactive	inactive	inactive	inactive	inactive	inactive	10	–	–	–	–
C=CCN(C)c1ccc2nc(SC)n(Cc3ccccc3)c(=O)c2c1	inactive	inactive	inactive	inactive	inactive	inactive	inactive	1	–	2	–	–
CCSc1nc2ccc([N+](=O)[O-])cc2c(=O)n1Cc1ccccc1	inactive	inactive	inactive	–	–	inactive	inactive	10	20	–	8 (≈ 23.4 µM)	15
CSc1nc2ccc(N)cc2c(=O)n1Cc1ccccc1	inactive	inactive	inactive	inactive	inactive	inactive	inactive	10	–	–	–	–
C=CCSc1nc2ccc([N+](=O)[O-])cc2c(=O)n1Cc1ccccc1	inactive	inactive	inactive	inactive	inactive	inactive	inactive	3	–	2	–	–
C=CCSc1nc2ccc(C)cc2c(=O)n1Cc1ccccc1	inactive	inactive	inactive	inactive	inactive	inactive	inactive	2	–	4	–	–
O=c1c2cc([N+](=O)[O-])ccc2nc(SCc2ccccc2)n1Cc1ccccc1	inactive	inactive	inactive	inactive	inactive	inactive	inactive	30	–	–	–	–
C=CCNc1ccc2nc(SC)n(Cc3ccccc3)c(=O)c2c1	inactive	inactive	inactive	–	inactive	inactive	inactive	0.6	17	0.8	–	–
C=CCn1c(SSc2nc(=O)c3cc([N+](=O)[O-])ccc3n2CC=C)nc(=O)c2cc([N+](=O)[O-])ccc21	inactive	inactive	inactive	inactive	inactive	inactive	inactive	10	–	–	–	–
C=CCSc1nc2ccc(N)cc2c(=O)n1Cc1ccccc1	inactive	inactive	inactive	inactive	inactive	inactive	inactive	8	–	5	–	–
